The source of these data is US20260109732A1, “LIPID AMINES” (ModernaTX, Inc., priority 2021, published 2026).

The nature of series [1]: Diameter and PDI from DLS measurements of mRNA nanoparticles with lipid amines. It is filed as physicochemical. In outline:
(§1)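 Ionizable lipid nanoparticles (IL1:DSPC:cholesterol:PEG-DMG-2K) formed by vortex mixing at pH 4, loaded with luciferase or CFTR mRNA at N:P 4.93, neutralized with TRIS pH 8.12, then modified with lipid amine SA50 at pH 7.5. Particle diameter and PDI read by DLS; mRNA encapsulation by Ribogreen assay.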

Series [2] is described as follows: Encapsulation of mRNA nanoparticles with lipid amines using Ribogreen assay. It is filed as physicochemical. The gist of the method: as §1
In series [3] the test system is HeLa cells. Kind of series: Luciferase Protein Expression Assay in HeLa Cells. To be noted: LNPs encapsulating Luciferase mRNA, 25 ng per well, N=4 wells; 5 h serum-free then 24 h; ONE-Glo. It is filed as cell-based, Human. The gist of the method:
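HeLa cells received LNPs carrying luciferase mRNA (25 ng per well) or PBS in serum-free MEM for 5 h, then complete MEM for a further 24 h. Luciferase then read by ONE-Glo luminescence after lysis and reported as average RLU of 4 replicate wells.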

Series [4] deals with HeLa cells. Kind of series: CFTR Protein Expression Assay in HeLa Cells. It is filed as cell-based, Human. The conditions noted are these: LNPs encapsulating CFTR mRNA, N=4 wells; 5 h serum-free then 24 h; immunofluorescence vs PBS control. In outline: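 HeLa cells dosed with CFTR mRNA LNPs (70 mM NaCl final buffer matrix) in serum-free MEM for 5 h, then complete MEM for 24 h. Fixed cells immunostained with anti-CFTR monoclonal and Alexa 488 secondary, imaged confocally; CFTR intensity per cell expressed as fold-change versus PBS buffer control, N=4 wells.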

Setting [5] is: CFTR mRNA nanoparticle with lipid amine.
The mark [6] stands for this setting: Luciferase mRNA nanoparticle modified with lipid amine.

Molecules are shown by their SMILES. Where a name gives a salt, the structure may show the parent alone.

On to `CCC(N)(CC)CCNCCCCN(CCC(N)(CC)CC)C(=O)CCSS[C@H]1CC[C@@]2(C)C(=CC[C@H]3[C@@H]4CC[C@H]([C@H](C)CCCC(C)C)[C@@]4(C)CC[C@@H]32)C1` [SA184, N-(3-amino-3-ethylpentyl)-N-(4-((3-amino-3-ethylpentyl)amino)butyl)-3-(((3S,8S,9S,10R,13R,14S,17R)-10,13-dimethyl-17-((R)-6-methylheptan-2-yl)-2,3,4,7,8,9,10,11,12,13,14,15,16,17-tetradecahydro-1H-cyclopenta[a]phenanthren-3-yl)disulfaneyl)propanamide trihydrochloride], for which the results for the “Diameter (nm)” value in series [1] (setting [5]) and in series [1] (setting [6]) were 71 nm and 74 nm, respectively. In addition, the PDI in series [1] (setting [5]) came to 0.13; in series [1] (setting [6]) it was 0.12. Besides, the entries for the “% Encapsulation (Ribogreen)” value in series [2] (setting [5]) and in series [2] (setting [6]) were 99.0% and 98.8%, respectively. Moreover, in the series on HeLa cells [3], the “Average Relative Light Units ± Standard Deviation” value came to 26222.4 ± 4612.1 Relative Light Units. For the same compound, in the series on HeLa cells [4], the “Average fold-change in CFTR signal intensity per cell compared to buffer control ± standard deviation” value worked out at 11.3 ± 0.7 fold-change.
In the case of `CC(C)CCC[C@@H](C)[C@H]1CC[C@H]2[C@@H]3CC=C4C[C@@H](SSCCC(=O)N(CCC(C)(C)N)CCC(C)(C)N)CC[C@]4(C)[C@H]3CC[C@]12C` [SA174, N,N-bis(3-amino-3-methylbutyl)-3-(((3S,8S,9S,10R,13R,14S,17R)-10,13-dimethyl-17-((R)-6-methylheptan-2-yl)-2,3,4,7,8,9,10,11,12,13,14,15,16,17-tetradecahydro-1H-cyclopenta[a]phenanthren-3-yl)disulfaneyl)propanamide dihydrochloride], the “Diameter (nm)” value was found to be 71.1 nm in series [1] (setting [5]) and 73 nm in series [1] (setting [6]). For the same compound, the PDI in series [1] (setting [5]) was 0.16; in series [1] (setting [6]) it was 0.17. Also, the “% Encapsulation (Ribogreen)” value in series [2] (setting [5]) is reported as 98.1%; in series [2] (setting [6]) it was 99.5%. In the series on HeLa cells [3], the “Average Relative Light Units ± Standard Deviation” value is given as 31280.7 ± 5830.7 Relative Light Units. The “Average fold-change in CFTR signal intensity per cell compared to buffer control ± standard deviation” value in the series on HeLa cells [4] stood at 14.8 ± 1.4 fold-change.
For the compound `CC[C@H](CC[C@@H](C)[C@H]1CC[C@H]2[C@@H]3CC=C4C[C@@H](OC(=O)CCCC(=O)N(CCC(C)N)CCC(C)N)CC[C@]4(C)[C@H]3CC[C@]12C)C(C)C` (stereo partly drawn) [SA156, (3S,8S,9S,10R,13R,14S,17R)-17-((2R,5R)-5-ethyl-6-methylheptan-2-yl)-10,13-dimethyl-2,3,4,7,8,9,10,11,12,13,14,15,16,17-tetradecahydro-1H-cyclopenta[a]phenanthren-3-yl 5-(bis(3-aminobutyl)amino)-5-oxopentanoate dihydrochloride], the “Diameter (nm)” value stood at 76.5 nm in series [1] (setting [5]) and 74 nm in series [1] (setting [6]). For the same compound, the PDI is given as 0.18 in series [1] (setting [5]) and 0.15 in series [1] (setting [6]). The results for the “% Encapsulation (Ribogreen)” value in series [2] (setting [5]) and in series [2] (setting [6]) were 99.6% and 99.5%, respectively. In the series on HeLa cells [3], the “Average Relative Light Units ± Standard Deviation” value is 37662.9 ± 8258.6 Relative Light Units. The “Average fold-change in CFTR signal intensity per cell compared to buffer control ± standard deviation” value in the series with HeLa cells [4] came to 14.6 ± 0.8 fold-change.
`CC(C)CCC[C@@H](C)[C@H]1CC[C@H]2[C@@H]3CC=C4C[C@@H](OC(=O)CCCC(=O)N(CCCN)CCCCCCCCN)CC[C@]4(C)[C@H]3CC[C@]12C.Cl.Cl` [SA134, (3S,8S,9S,10R,13R,14S,17R)-10,13-dimethyl-17-((R)-6-methylheptan-2-yl)-2,3,4,7,8,9,10,11,12,13,14,15,16,17-tetradecahydro-1H-cyclopenta[a]phenanthren-3-yl 5-((8-aminooctyl)(3-aminopropyl)amino)-5-oxopentanoate dihydrochloride]: the “Diameter (nm)” value is 74.1 nm in series [1] (setting [5]) and 72 nm in series [1] (setting [6]). Also, the PDI came to 0.10 in series [1] (setting [5]) and 0.13 in series [1] (setting [6]). Besides, the “% Encapsulation (Ribogreen)” value in series [2] (setting [5]) is 98.7%; in series [2] (setting [6]) it was 99.5%. Moreover, the “Average Relative Light Units ± Standard Deviation” value with HeLa cells [3] was 29194.3 ± 6336.9 Relative Light Units. In the series on HeLa cells [4], the “Average fold-change in CFTR signal intensity per cell compared to buffer control ± standard deviation” value is 17.7 ± 0.9 fold-change.
With `CC(C)CCC[C@@H](C)[C@H]1CC[C@H]2[C@@H]3CC=C4C[C@@H](OC(=O)N(CCCCNCCC(C)N)CCC(C)N)CC[C@]4(C)[C@H]3CC[C@]12C` (stereo partly drawn) [SA76, (3S,8S,9S,10R,13R,14S,17R)-10,13-dimethyl-17-((R)-6-methylheptan-2-yl)-2,3,4,7,8,9,10,11,12,13,14,15,16,17-tetradecahydro-1H-cyclopenta[a]phenanthren-3-yl (3-aminobutyl)(4-((3-aminobutyl)amino)butyl)carbamate trihydrochloride], the “Diameter (nm)” value in series [1] (setting [5]) was 83.9 nm; in series [1] (setting [6]), 75 nm. Further, the PDI in series [1] (setting [5]) turned out to be 0.11; in series [1] (setting [6]), 0.20. In addition, the “% Encapsulation (Ribogreen)” value was 100% in series [2] (setting [5]) and 98.1% in series [2] (setting [6]). Further, in the series with HeLa cells [3], the “Average Relative Light Units ± Standard Deviation” value is reported as 38232.8 ± 4603.5 Relative Light Units. For the same compound, the “Average fold-change in CFTR signal intensity per cell compared to buffer control ± standard deviation” value in the series on HeLa cells [4] worked out at 12.0 ± 1.1 fold-change.
As to `CC(C)CCC[C@@H](C)[C@H]1CC[C@H]2[C@@H]3CC=C4C[C@@H](OC(=O)CN(CCCCCCCCN)C(=O)CCCCCN)CC[C@]4(C)[C@H]3CC[C@]12C` [SA123, (3S,8S,9S,10R,13R,14S,17R)-10,13-dimethyl-17-((R)-6-methylheptan-2-yl)-2,3,4,7,8,9,10,11,12,13,14,15,16,17-tetradecahydro-1H-cyclopenta[a]phenanthren-3-yl N-(6-aminohexanoyl)-N-(8-aminooctyl)glycinate dihydrochloride], the “Diameter (nm)” value was 83.2 nm in series [1] (setting [5]) and 73 nm in series [1] (setting [6]). In addition, the values for the PDI in series [1] (setting [5]) and in series [1] (setting [6]) were 0.12 and 0.14, respectively. The figures for the “% Encapsulation (Ribogreen)” value in series [2] (setting [5]) and in series [2] (setting [6]) were 99.0% and 99.5%, respectively. Further, in the series with HeLa cells [3], the “Average Relative Light Units ± Standard Deviation” value is 28520.5 ± 6429.4 Relative Light Units. Besides, the “Average fold-change in CFTR signal intensity per cell compared to buffer control ± standard deviation” value in the series with HeLa cells [4] was 14.7 ± 1.0 fold-change.
As to `CC(C)CCC[C@@H](C)[C@H]1CC[C@H]2[C@@H]3CC=C4C[C@@H](OC(=O)N(CCCCNCC(F)(F)CN)CC(F)(F)CN)CC[C@]4(C)[C@H]3CC[C@]12C` [SA79, (3S,8S,9S,10R,13R,14S,17R)-10,13-dimethyl-17-((R)-6-methylheptan-2-yl)-2,3,4,7,8,9,10,11,12,13,14,15,16,17-tetradecahydro-1H-cyclopenta[a]phenanthren-3-yl (3-amino-2,2-difluoropropyl)(4-((3-amino-2,2-difluoropropyl)amino)butyl)carbamate trihydrochloride], the “Diameter (nm)” value in series [1] (setting [5]) was found to be 78.4 nm; in series [1] (setting [6]), 74 nm. In addition, the values for the PDI in series [1] (setting [5]) and in series [1] (setting [6]) were 0.13 and 0.18, respectively. Moreover, the “% Encapsulation (Ribogreen)” value is 97.9% in series [2] (setting [5]) and 97.0% in series [2] (setting [6]). Moreover, in the series on HeLa cells [3], the “Average Relative Light Units ± Standard Deviation” value was 105.1 ± 20 Relative Light Units. The “Average fold-change in CFTR signal intensity per cell compared to buffer control ± standard deviation” value in the series with HeLa cells [4] is given as 0.8 ± 0 fold-change.
As for `CC(C)CCC[C@@H](C)[C@H]1CC[C@H]2[C@@H]3CC=C4C[C@@H](OC(=O)N(CCCCNCC(O)CN)CC(O)CN)CC[C@]4(C)[C@H]3CC[C@]12C` (stereo partly drawn) [SA88, (3S,8S,9S,10R,13R,14S,17R)-10,13-dimethyl-17-((R)-6-methylheptan-2-yl)-2,3,4,7,8,9,10,11,12,13,14,15,16,17-tetradecahydro-1H-cyclopenta[a]phenanthren-3-yl (3-amino-2-hydroxypropyl)(4-((3-amino-2-hydroxypropyl)amino)butyl)carbamate trihydrochloride], the “Diameter (nm)” value stood at 89.4 nm in series [1] (setting [5]) and 75 nm in series [1] (setting [6]). Moreover, the PDI in series [1] (setting [5]) was 0.19; in series [1] (setting [6]), 0.13. Moreover, the results for the “% Encapsulation (Ribogreen)” value in series [2] (setting [5]) and in series [2] (setting [6]) were 99.1% and 99.8%, respectively. Besides, the “Average Relative Light Units ± Standard Deviation” value with HeLa cells [3] is on record as 17105.3 ± 7097.3 Relative Light Units. Moreover, the “Average fold-change in CFTR signal intensity per cell compared to buffer control ± standard deviation” value in the series on HeLa cells [4] is recorded as 4.5 ± 0.2 fold-change.
With `CC(C)CCC[C@@H](C)[C@H]1CC[C@H]2[C@@H]3CC=C4C[C@@H](SSCCC(=O)N(CCCC(C)(C)N)CCC(C)(C)N)CC[C@]4(C)[C@H]3CC[C@]12C` [SA145, N-(3-amino-3-methylbutyl)-N-(4-amino-4-methylpentyl)-3-(((3S,8S,9S,10R,13R,14S,17R)-10,13-dimethyl-17-((R)-6-methylheptan-2-yl)-2,3,4,7,8,9,10,11,12,13,14,15,16,17-tetradecahydro-1H-cyclopenta[a]phenanthren-3-yl)disulfaneyl)propanamide dihydrochloride], the “Diameter (nm)” value is on record as 71.8 nm in series [1] (setting [5]) and 77 nm in series [1] (setting [6]). Also, the PDI in series [1] (setting [5]) is on record as 0.14; in series [1] (setting [6]), 0.17. For the same compound, the “% Encapsulation (Ribogreen)” value in series [2] (setting [5]) came out at 99.8%; in series [2] (setting [6]), 99.7%. Further, the “Average Relative Light Units ± Standard Deviation” value with HeLa cells [3] is reported as 36033.7 ± 4254.5 Relative Light Units. Moreover, the “Average fold-change in CFTR signal intensity per cell compared to buffer control ± standard deviation” value in the series with HeLa cells [4] is 14.4 ± 0.6 fold-change.
